This is an account of results in patent US4939177A, “Use of avarol for the control of AIDS and ARC” (Merz + Co. GmbH & Co., priority 1986, dated 1990).

In one experiment the test system is herpes simplex virus. The conditions noted are these: in vitro, cultures of herpes simplex virus; cited from earlier work.
For experiment [1], the system named is mouse leukemia cells L5178-Y. The note with it: in vitro and in vivo; cited from earlier work.
Experiment [2] relates to L5178y mouse lymphoma cells. Description: L5178y cell growth. Format: cell-based. The conditions noted are these: Mus musculus, L5178Y, absence of Avarol. The method, then:
mouse lymphoma cells were grown in roller tube cultures in Eagle's minimum essential medium, supplemented with 10% horse serum (Muller et al., Cancer Res. 39: 1102-1107; 1979 and Muller et al. Cancer Res. 45: 4822-4826; 1985). […] The cell growth was determined by cell count with a computer supported cell-counter (128-channel counter; Cytocomp, system Michaelis: BIOTRON-Medizinelektronik, Mainz; West Germany). The ED50 (±SD) was estimated by logit regression (L. Sachs, […], Springer-Verlag, Berlin 1984). The mathematical evaluation of the fractional inhibitory concentration indices (FIC indices) of Avarol/Avarone-DDC combinations was performed according to published equations and experimental conditions (Muller et al., Cancer Lett. 1: 127-132; 1976; and Phillips et al., Antimicrob. Agents Chemother. 9: 736-740, 1976). […] In this set of experiments, […] cells were incubated with Avarol in the absence or presence of the established SODase inhibitor DDC.

Experiment [3] has as its system DTH to oxazolone in NMRI mice. The experiment can be described thus: Contact allergy to oxazolone. The note with it: 30 mg/kg per os. Type of experiment: in vivo, mouse. The method, then: Allergic contact dermatitis against oxazolone was produced according to the method of Asherson and Ptak (Immunol. 15: 405-416; 1968) as well as those of Bure and Degrand (Agents and Actions 9: 534; 1979). Male NMRI mice (20-22 g; 10/group) were sensitized with 100 μl of a 2% oxazolone in acetone solution onto the shaved abdomen (day 0). Animals were treated with avarol (i.p.) daily from day -1 to +2 or from day +6 to +8; control group was treated with deoxymethasone (Casella-Hoechst) as a standard per os at a daily dose of 30 mg/kg for the same period of time as for avarol. Seven days after sensitization 10 μl of a 3% oxazolane (this concentration was previously found to give more reproducible results than the lower 2% concentration) solution were topically applied onto the inner side of one ear, whereas the other ear received only acetone. […] Treated groups were compared with controls using the U-test.

For the compound `CC1=CCC[C@H]2[C@](C)(CC3=CC(=O)C=CC3=O)[C@@H](C)CC[C@]12C` [Avarone], the virostatic action entry in the experiment with herpes simplex virus was “certain virostatic action in vitro”. Further, in experiment [1], the antileukemic action entry is “antileukemic action”.

As to `CCN(CC)C(=S)S` [DDC, diethyldithiocarbamate, reference compound], in experiment [2] (DDC 1.46 μM), the inhibition (usually the relative decrease from the control value, in per cent) at 1.46 µM is 26%. In experiment [2] (DDC 1.71 μM), the inhibition at 1.71 µM is 38%.

Turning to `C[C@@H]1C[C@H]2[C@@H]3CCC4=CC(=O)C=C[C@]4(C)[C@@]3(F)[C@@H](O)C[C@]2(C)[C@H]1C(=O)CO` [Deoxymethasone], the “influence on DTH reaction to oxazolone, in words” value in experiment [3] (both schedules) is “significant immunosuppressive influence”. Moreover, the “24 hours increase in ear thickness” value in experiment [3] (day +6 to +8, control 18.5±3.7) was 10.9 ± 6.1 mg; in experiment [3] (day -1 to +2, control 22.3±5.6), 10.2 ± 6.0 mg.
